{"source": "the NIST ThermoML archive (doi:10.1021/je8003595)", "key": {"[1]": {"conditions": "101 kPa, Liquid; for viscosity: Capillary tube (Ostwald / Ubbelohde) method"}, "[2]": {"assay": "mn = molality of the nth substance listed, in mol/kg", "conditions": "101 kPa, Liquid, m2 = 0; for viscosity: Capillary tube (Ostwald / Ubbelohde) method"}}, "note": "± gives the expanded uncertainty stated by the source.", "data": [{"compound": "CC#N", "note": "[acetonitrile]", "values": [{"measurement": "mass density", "setting": "[1]; 293.15 K", "result": "782.499 ± 0.5", "unit": "kg/m3"}, {"measurement": "viscosity", "setting": "[1]; 293.15 K", "result": "0.3081 ± 0.0065", "unit": "mPa·s"}, {"measurement": "mass density", "setting": "[1]; 298.15 K", "result": "777.099 ± 0.51", "unit": "kg/m3"}, {"measurement": "viscosity", "setting": "[1]; 298.15 K", "result": "0.2857 ± 0.0065", "unit": "mPa·s"}, {"measurement": "mass density", "setting": "[1]; 303.15 K", "result": "771.674 ± 0.52", "unit": "kg/m3"}, {"measurement": "viscosity", "setting": "[1]; 303.15 K", "result": "0.2642 ± 0.0064", "unit": "mPa·s"}, {"measurement": "mass density", "setting": "[1]; 308.15 K", "result": "766.217 ± 0.53", "unit": "kg/m3"}, {"measurement": "viscosity", "setting": "[1]; 308.15 K", "result": "0.2444 ± 0.0064", "unit": "mPa·s"}, {"measurement": "mass density", "setting": "[1]; 310.15 K", "result": "763.991 ± 0.53", "unit": "kg/m3"}, {"measurement": "viscosity", "setting": "[1]; 310.15 K", "result": "0.2374 ± 0.0064", "unit": "mPa·s"}, {"measurement": "mass density", "setting": "[1]; 313.15 K", "result": "760.702 ± 0.53", "unit": "kg/m3"}, {"measurement": "viscosity", "setting": "[1]; 313.15 K", "result": "0.2267 ± 0.0063", "unit": "mPa·s"}]}, {"compound": "CC#N", "note": "[acetonitrile] + O=C(Oc1ccccc1)c1ccccc1O", "values": [{"measurement": "viscosity", "setting": "[2]; 293.15 K", "result": "0.3081 ± 0.0065", "unit": "mPa·s"}, {"measurement": "mass density", "setting": "[2]; 293.15 K", "result": "782.499 ± 0.5", "unit": "kg/m3"}, {"measurement": "viscosity", "setting": "[2]; 298.15 K", "result": "0.2857 ± 0.0065", "unit": "mPa·s"}, {"measurement": "mass density", "setting": "[2]; 298.15 K", "result": "777.099 ± 0.51", "unit": "kg/m3"}, {"measurement": "viscosity", "setting": "[2]; 303.15 K", "result": "0.2642 ± 0.0064", "unit": "mPa·s"}, {"measurement": "mass density", "setting": "[2]; 303.15 K", "result": "771.674 ± 0.52", "unit": "kg/m3"}, {"measurement": "viscosity", "setting": "[2]; 308.15 K", "result": "0.2444 ± 0.0064", "unit": "mPa·s"}, {"measurement": "mass density", "setting": "[2]; 308.15 K", "result": "766.217 ± 0.53", "unit": "kg/m3"}, {"measurement": "viscosity", "setting": "[2]; 310.15 K", "result": "0.2374 ± 0.0064", "unit": "mPa·s"}, {"measurement": "mass density", "setting": "[2]; 310.15 K", "result": "763.991 ± 0.53", "unit": "kg/m3"}, {"measurement": "viscosity", "setting": "[2]; 313.15 K", "result": "0.2267 ± 0.0063", "unit": "mPa·s"}, {"measurement": "mass density", "setting": "[2]; 313.15 K", "result": "760.702 ± 0.53", "unit": "kg/m3"}]}]}
